Structures can show the parent of a compound that is named as a salt.
Legend:
circulating lymphocytes [1] = assay: Blood Lymphocyte Reduction Assay (BLR) in mice; assay type: in vivo, BALB/c mice; details: oral
Method: (§1) Blood Lymphocyte Reduction Assay (BLR) in Rodents
(§2) Lewis rats or BALB/c mice were dosed orally with test article (as a solution or suspension in the vehicle) or vehicle alone (polyethylene glycol 300, “PEG300”). Blood was drawn at 4 hr and 24 h by retro-orbital bleeding. Blood lymphocyte counts were determined on an ADVIA 120 Hematology Analyzer (Siemens Healthcare Diagnostics). The results were measured as a reduction in the percentage of circulating lymphocytes as compared to the vehicle treated group at the 4 hr and 24 hr measurement. The results represent the average results of all animals within each treatment group (n=3-4).
(§3) Compounds of the present invention were tested in the Blood Lymphocyte Reduction assay (BLR) described hereinabove and the results are shown in Table D for rats and Table E for mice.

circulating lymphocytes [2] = assay: Blood Lymphocyte Reduction Assay (BLR) in rats; assay type: in vivo, Lewis rats; details: oral
Method: as §1, §2, §3

S1P1 [3] = target: T1, S1P1 (Homo sapiens, UniProt P21453); assay: Method A: Receptor [35S] GTPγS Binding Assay, S1P1; assay type: biochemical; details: for EC50: Method A, S1P1/CHO cell membranes; for GTPγS S1P3/S1P1 (Method A): ratio of S1P3 EC50 to S1P1 EC50, Method A
T1 construct: expressed in transfected cells; host or cells: CHO cells
Method: (§4) Method A: Receptor [35S] GTPγS Binding Assays
(§5) Compounds were loaded in a 384 FALCON® v-bottom plate (0.5 μl/well in a 3-fold dilution). Membranes prepared from S1P1/CHO cells or EDG3-Gal5-bla HEK293T cells were added to the compound plate (40 μl/well, final protein 3 μg/well) with MULTIDROP®. [^35S]GTP (1250 Ci/mmol, Perkin Elmer) was diluted in assay buffer: 20 mM HEPES, pH7.5, 10 mM MgCl2, 150 mM NaCl, 1 mM EGTA, 1 mM DTT, 10 μM GDP, 0.1% fatty acid free BSA, and 10 μg/ml Saponin to 0.4 nM. 40 μl of the [^35S] GTP solution was added to the compound plate with a final concentration of 0.2 nM. The reaction was kept at room temperature for 45 min. At the end of incubation, all the mixtures in the compound plate were transferred to a 384 well FB filter plates via GPCR robot system. The filter plate was washed with water 4 times by using the modified manifold Embla plate washer and dried at 60° C. for 45 min. 30 μA of MicroScint 20 scintillation fluid was added to each well for counting at Packard TOPCOUNT®. EC50 is defined as the agonist concentration that corresponds to 50% of the Ymax (maximal response) obtained for each individual compound tested.
(§6) Compounds of the present invention and Comparative Compound A were tested in the Receptor [^35S] GTPγS Binding Assays (Method A) and Receptor [^35S] In some instances, the value is an average of multiple experiments where N is the number of experiments conducted that provided satisfactory dose response curves. When more than one batch of an example was tested, the value presented is from a batch which allowed a comparison of GTPγS S1P1 and GTPγS S1P3 in which the most number of experiments were performed. Preferably, the same batch was examined in Method A and Method B. Data was not averaged across different batches of an example compound.

Lewis rats = assay: Rat Adjuvant Induced Arthritis Assay (AA); assay type: in vivo; details: for Paw Swelling (mL) on Day 21, Mean: vehicle mean 1.58
Method: Rat Adjuvant Induced Arthritis Assay (AA)
Male Lewis rats (150-175 g; Harlan, n=8 treatment group) were immunized at the base of the tail with 100 μl of 10 mg/ml freshly ground Mycobacterium butyricum (Difco Laboratories) in incomplete Freund's adjuvant (sigma). Animals were dosed once daily with the test article (as a solution or suspension in the vehicle) or vehicle alone (polyethylene glycol 300, “PEG300”) starting from the day of immunization. The volumes of their hind paws were measured in a water displacement plethysmometer (Ugo Basile, Italy). The baseline paw measurements were taken before onset of the disease (between day 7 to day 10). The paw measurements were then taken three times a week until the end of the study on day 20 to 21. All procedures involving animals were reviewed and approved by the Institutional Animal Care Use Committee.
Compounds of the present invention were tested in the Rat Adjuvant Induced Arthritis assay described hereinabove and the results are shown in Table F and Table G.

S1P1 [4] = target: T1, S1P1; assay: Method B: Receptor [35S] GTPγS SPA Binding Assay, S1P1; assay type: biochemical; details: for EC50: Method B (SPA), S1P1 transfected CHO cell membranes; for GTPγS S1P3/S1P1 (Method B): ratio of S1P3 EC50 to S1P1 EC50, Method B
Method: (§7) Method B: Receptor [^35S] GTPγS SPA Binding Assays
(§8) Membranes prepared from S1P1 or S1P3 transfected CHO cells (2 μg protein) were incubated in 96-well white plates (CORNING® 3693) with test compounds diluted in DMSO, in 50 μl of reaction mixture containing 7.5 μA WGA-PVT beads (20 mg/ml), and 5 μM GDP, 20 mM HEPES pH 7.4, 100 mM NaCl, 1 mM EDTA, 5 mM MgCl2, 10 μg/ml saponin, 0.1% BSA, and 1 μM leupeptin. The assay was initiated with the addition of […] of 0.2 nM [^35S]-GTPγS (1250 Ci/mmol; NEN) in assay buffer. After 90 min incubation at room temperature, spin the plate at 1000 rpm for 5 min. The bound radionuclides were measured at TOPCOUNT®, expressed as % response relative to S1P (1 μM) activation. Data was analyzed using the four parameter logistic equation in Excel. The four parameters in the equation, Y=A+((B−A)/(1+((EC50/X)^D))), are described as following: A is the Y value (agonist activity) at the bottom plateau; B is the Y value at the top plateau; EC50 is the X value (agonist concentration) when the response is halfway between bottom and top; D is Hill coefficient. Curves were not generated for compounds having Ymax values were below 50%.
as §6

S1P1 [5] = target: T1, S1P1; assay: S1P1 Binding Assay (33P-S1P competition, CHO membranes); details: membranes of CHO cells expressing human S1P1, 33P-S1P ligand; read-out: S1P1 B IC50
Method: Membranes were prepared from CHO cells expressing human S1P1. Cells were dissociated in buffer containing 20 mM HEPES, pH 7.5, 50 mM NaCl, 2 mM EDTA and Protease Inhibitor cocktail (Roche), and disrupted on ice using the Polytron homogenizer. The homogenate was centrifuged at 20,000 rpm (48,000 g) and the supernatant was discarded. The membrane pellets were resuspended in buffer containing 50 mM HEPES, pH 7.5, 100 mM NaCl, 1 mM MgCl2, 2 mM EDTA and stored in aliquots at −80° C. after protein concentration determination.
Membranes (2 μg/well) and 0.03 nM final concentration of ^33P-S1P ligand (1 mCi/ml, American Radiolabeled Chemicals) were added to the compound plates. Binding was performed for 60 min at room temperature, terminated by collecting the membranes onto GF/B filter plates, and radioactivity was measured by TOPCOUNT®. The competition data of the test compounds over a range of concentrations was plotted as percentage inhibition of radioligand specific binding. The IC50 is defined as the concentration of competing ligand needed to reduce specific binding by 50%.
Compounds of the present invention and Comparative Compound A were tested in the S1P1 binding assay described hereinabove and the results rounded to two digits, shown in Table A were obtained. In some instances, the value is an average of multiple experiments where N is the number of experiments conducted that provided satisfactory dose response curves. When more than one batch of an example was tested, the value presented is from the batch which allowed a comparison of GTPγS S1P1 and GTPγS S1P3 in Method A (Data shown in Table B). Data was not averaged across different batches of an example compound.

S1P3 [6] = target: T2, S1P3 (Homo sapiens, UniProt Q99500); assay: Method B: Receptor [35S] GTPγS SPA Binding Assay, S1P3; assay type: biochemical; design: expressed in transfected cells; host or cells: CHO cells; details: S1P3 transfected CHO cell membranes
Method: as §7, §8, §6

S1P3 [7] = target: T2, S1P3; assay: Method A: Receptor [35S] GTPγS Binding Assay, S1P3; assay type: biochemical; design: expressed in transfected cells; details: EDG3-Gal5-bla HEK293T cell membranes
Method: as §4, §5, §6

T2 sequence (Q99500 whole entry): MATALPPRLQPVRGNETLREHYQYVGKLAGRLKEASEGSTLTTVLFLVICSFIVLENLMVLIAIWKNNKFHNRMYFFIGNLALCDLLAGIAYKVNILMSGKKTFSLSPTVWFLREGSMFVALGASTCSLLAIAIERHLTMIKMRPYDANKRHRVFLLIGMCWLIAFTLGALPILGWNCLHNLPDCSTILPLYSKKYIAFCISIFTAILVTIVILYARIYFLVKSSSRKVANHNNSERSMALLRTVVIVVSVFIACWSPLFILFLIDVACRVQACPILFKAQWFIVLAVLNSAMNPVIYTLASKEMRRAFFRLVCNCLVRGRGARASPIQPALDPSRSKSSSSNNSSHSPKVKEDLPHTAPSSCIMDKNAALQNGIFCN
T1 sequence (P21453 whole entry): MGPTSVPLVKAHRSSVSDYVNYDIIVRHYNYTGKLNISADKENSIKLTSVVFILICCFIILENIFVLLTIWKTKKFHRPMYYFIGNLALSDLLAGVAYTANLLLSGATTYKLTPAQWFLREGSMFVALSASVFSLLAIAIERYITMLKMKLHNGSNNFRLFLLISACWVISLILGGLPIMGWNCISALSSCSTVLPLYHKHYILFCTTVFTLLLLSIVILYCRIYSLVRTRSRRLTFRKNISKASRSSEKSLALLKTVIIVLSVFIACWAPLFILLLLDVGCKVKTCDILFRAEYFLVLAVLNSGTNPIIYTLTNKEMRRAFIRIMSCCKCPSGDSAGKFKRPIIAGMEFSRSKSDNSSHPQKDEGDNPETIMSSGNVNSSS

EC50 (S1P1 [3]) [nM] | EC50 (S1P1 [4]) [nM] | GTPγS S1P3/S1P1 (Method B) (S1P1 [4]) | IC50 (S1P1 [5]) [nM] | EC50 (S1P3 [6]) [nM] | GTPγS S1P3/S1P1 (Method A) (S1P1 [3]) | EC50 (S1P3 [7]) [nM] | SMILES | also measured
1.9 | 0.17 | 12,000 | 0.3 | 2100 |  |  | O=C(O)C1CN(Cc2ccc(-c3noc(-c4cnn(-c5ccccc5)c4C(F)(F)F)n3)cc2)C1 [Example 2, 1-(4-(5-(1-Phenyl-5-(trifluoromethyl)-1H-pyrazol-4-yl)-1,2,4-oxadiazol-3-yl)benzyl)azetidine-3-carboxylic acid] | % reduction in lymphocytes at 4 hr. (circulating lymphocytes [1]; 0.04 mg/kg): 68%; % reduction in lymphocytes at 24 hr. (circulating lymphocytes [1]; 0.04 mg/kg): 5%; % reduction in lymphocytes at 4 hr. (circulating lymphocytes [1]; 0.2 mg/kg): 76%; % reduction in lymphocytes at 24 hr. (circulating lymphocytes [1]; 0.2 mg/kg): 64%; % reduction in lymphocytes at 4 hr. (circulating lymphocytes [1]; 1.0 mg/kg): 80%; % reduction in lymphocytes at 24 hr. (circulating lymphocytes [1]; 1.0 mg/kg): 82%; % reduction in lymphocytes at 4 hr. (circulating lymphocytes [1]; 3.0 mg/kg): 73%; % reduction in lymphocytes at 24 hr. (circulating lymphocytes [1]; 3.0 mg/kg): 89%; % reduction in lymphocytes at 4 hr. (circulating lymphocytes [2]; 0.04 mg/kg): 64%; % reduction in lymphocytes at 24 hr. (circulating lymphocytes [2]; 0.04 mg/kg): 8%; % reduction in lymphocytes at 4 hr. (circulating lymphocytes [2]; 0.2 mg/kg): 76%; % reduction in lymphocytes at 24 hr. (circulating lymphocytes [2]; 0.2 mg/kg): 55%; % reduction in lymphocytes at 4 hr. (circulating lymphocytes [2]; 1.0 mg/kg): 76%; % reduction in lymphocytes at 24 hr. (circulating lymphocytes [2]; 1.0 mg/kg): 79%; Paw Swelling (mL) on Day 21, Mean (Lewis rats; 0.2 mg/kg once daily): 02.12 mL; Paw Swelling (mL) on Day 21, Mean (Lewis rats; 1.0 mg/kg once daily): 0.91 mL; Paw Swelling (mL) on Day 21, Mean (Lewis rats; 3.0 mg/kg once daily): 0.19 mL; Paw Swelling (mL) on Day 21, Mean (Lewis rats; 10.0 mg/kg once daily): 0.10 mL; disease progression as measured by paw swelling (Lewis rats; Lewis rat, prophylactic oral dosing): inhibit disease progression
4.2 |  |  | 0.12 | 1300 | 690 | 2900 | CCCc1c(-c2nc(-c3ccc(CN4CC(C(=O)O)C4)cc3)no2)cnn1-c1ccccn1 [Example 6, 1-(4-(5-(5-propyl-1-(pyridin-2-yl)-1H-pyrazol-4-yl)-1,2,4-oxadiazol-3-yl)benzyl)azetidine-3-carboxylic acid] | 
260 | 17 |  | 30 |  | 50 | 13000 | Cc1c(-c2nc(-c3ccc(CN4CC(C(=O)O)C4)cc3)no2)cnn1-c1ccccc1 [Example 5, 1-(4-(5-(5-methyl-1-phenyl-1H-pyrazol-4-yl)-1,2,4-oxadiazol-3-yl)benzyl)azetidine-3-carboxylic acid] | 
52 | 2.2 | 1,900 | 5.4 | 4100 | 69 | 3600 | O=C(O)C1CN(Cc2ccc(-c3noc(-c4cnn(-c5ccccc5)c4-c4cccnc4)n3)cc2)C1 [Example 15, 1-(4-(5-(1-Phenyl-5-(pyridin-3-yl)-1H-pyrazol-4-yl)-1,2,4-oxadiazol-3-yl)benzyl)azetidine-3-carboxylic acid, 2,2,2-trifluoroacetic acid salt] | 
